pIC50: −log10 of the molar value.

The target in this assay is MAPK14 (human) (UniProt Q16539). As to the kind of experiment: Cell-Based Assay. Conditions: hct-116.
Sequence of MAPK14 (human) (Q16539 whole entry, looked up): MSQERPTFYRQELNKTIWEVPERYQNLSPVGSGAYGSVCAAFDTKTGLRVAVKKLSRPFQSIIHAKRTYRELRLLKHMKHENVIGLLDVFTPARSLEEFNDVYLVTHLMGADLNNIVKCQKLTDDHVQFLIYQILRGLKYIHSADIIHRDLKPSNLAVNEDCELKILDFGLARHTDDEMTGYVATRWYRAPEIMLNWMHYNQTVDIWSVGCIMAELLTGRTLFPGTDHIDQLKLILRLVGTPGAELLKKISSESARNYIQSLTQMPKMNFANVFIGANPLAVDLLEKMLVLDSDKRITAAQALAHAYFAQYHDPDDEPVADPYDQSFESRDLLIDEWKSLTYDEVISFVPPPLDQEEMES
As for `CS(=O)(=O)CCN1CCC(n2cc(-c3cnc(N)c4oc(-c5cccc6cnccc56)cc34)cn2)CC1`, the pIC50 was 6.00 to 7.00.

Compound `CC(=O)N1CCC(n2cc(-c3cnc(N)c4oc(-c5cccc6ccnn56)cc34)cn2)CC1` gave a pIC50 of 6.00 to 7.00.

For `CC(=O)N1CCC(n2cc(-c3cnc(N)c4oc(-c5ccc6c(c5)CCO6)cc34)cn2)CC1`, the pIC50 was at least 7.00. Next, `CC(=O)N1CCC(n2cc(-c3cnc(N)c4oc(-c5cccc6[nH]ccc56)cc34)cn2)CC1`: 6.00 to 7.00; `CC(=O)N1CCC(n2cc(-c3cnc(N)c4oc(-c5c[nH]c6cc(C#N)ccc56)cc34)cn2)CC1`: 6.00 to 7.00; `CC(=O)N1CCC(n2cc(-c3cnc(N)c4oc(-c5cnn(Cc6cccnc6)c5)cc34)cn2)CC1`: below 5.00. In turn, `CNc1ncc(-c2cnn(C3CCN(C(C)=O)CC3)c2)c2cc(-c3csc4cnccc34)oc12` showed a pIC50 of at least 7.00.

For the compound `Nc1ncc(-c2cnn([C@H]3CC[C@H](O)CC3)c2)c2cc(-c3csc4cnccc34)oc12`, the pIC50 is at least 7.00. The same measure for `Nc1ncc(-c2cnn(C3CCN(C(=O)C4CCC4)CC3)c2)c2cc(-c3cccc4cnccc34)oc12`: 6.00 to 7.00. The same measure for `Nc1ncc(-c2cnn(C3CCCCC3)c2)c2cc(-c3c[nH]c4cnccc34)oc12`: 6.00 to 7.00. The same measure for `CC(=O)N1CCC(n2cc(-c3cnc(N)c4oc(-c5ccccc5CC#N)cc34)cn2)CC1`: 6.00 to 7.00.

`Nc1ncc(-c2cnn(C3CC(=O)C3)c2)c2cc(-c3csc4cnccc34)oc12` gave a pIC50 of 6.00 to 7.00. As for `CC(C)N1CCC(n2cc(-c3cnc(N)c4oc(-c5cccc6cnccc56)cc34)cn2)CC1`, the pIC50 is 6.00 to 7.00. The same measure for `CC(=O)N1CCC(n2cc(-c3cnc(N)c4oc(-c5cccc6c5OC(F)(F)O6)cc34)cn2)CC1`: 6.00 to 7.00; for `CC(C)n1cc(-c2cnc(N)c3oc(-c4cccc5cnccc45)cc23)cn1`: 6.00 to 7.00. The same measure for `CC(=O)N1CCC(n2cc(-c3cnc(N)c4oc(-c5csc6cnccc56)cc34)cn2)CC1`: 6.00 to 7.00. Compound `Nc1ncc(-c2cnn([C@@H]3C[C@@H](O)[C@@H](O)C3)c2)c2cc(-c3csc4cnccc34)oc12` had a pIC50 of 6.00 to 7.00. The same measure for `Nc1ncc(-c2cnn(C3CCNCC3)c2)c2cc(-c3cccc4cnsc34)oc12`: 6.00 to 7.00. For `Nc1ncc(-c2cnn(C3CC4(C3)OCCO4)c2)c2cc(-c3csc4cnccc34)oc12`, the pIC50 is 6.00 to 7.00. Next, `CC(=O)N1CCC(n2cc(-c3cnc(N)c4oc(-c5cccc6[nH]ncc56)cc34)cn2)CC1`: 6.00 to 7.00. `CNc1ncc(-c2cnn(C3CCN(C(C)=O)CC3)c2)c2cc(-c3c[nH]c4cnccc34)oc12` gave a pIC50 of 6.00 to 7.00. The same measure for `CC(=O)N1CCC(n2cc(-c3cnc(N)c4oc(-c5ccc6sccc6c5)cc34)cn2)CC1`: 6.00 to 7.00; for `CN1CCC(n2cc(-c3cnc(N)c4oc(-c5cccc6cnccc56)cc34)cn2)CC1`: 6.00 to 7.00.

The values above are taken from the Kinase Knowledgebase extract (Sharma et al. 2016).
